Data taken from ChEMBL document CHEMBL5365393, “Comprehensive coverage on anti-mycobacterial endeavour reported during 2022” (Eur J Med Chem, 2023).
Values after ≈ are worked out from the molar mass of the structure shown.

Tested on: Mycobacterium tuberculosis variant bovis
Assay: Antibacterial activity against Mycobacterium bovis BCG assessed as inhibition of bacterial growth incubated for 15 days by REMA method
Assay type: functional
Settings: 360 h, time 15 day

N#Cc1cc(OCCOc2ccccc2)cc(-c2ccc(C(=O)O)o2)c1 showed an MIC99 of 63 µM (≈ 22 µg/mL).
